Starred links: 1 amine or outer side, 2 acyl side, 3 side chain; linkers in the order of their positions; H or OH if unused. Positions of bridges follow the written chain, without caps; N, C: chain ends. Residues, ends and D or L forms follow the SMILES beside them. Chains are numbered I, II in the order given. X1 = c1cc(C[*:1])ccc1COCc1ccc(C[*:2])cc1
Key:
[1] = target: T1, MYC/MAX complex (Homo sapiens, UniProt P01106); experiment: Fluorescence polarization direct binding to the MYC/MAX complex; conditions: FP direct binding of fluorescein-labeled peptide to preformed MYC/MAX heterodimer; read-out: CHD^Max-1 Binding Affinity, Kd (MYC/MAX)
T1 construct: we used recombinant MYC protein (MYC^353–437); His6 (N)
T1 sequence (P01106 368-452): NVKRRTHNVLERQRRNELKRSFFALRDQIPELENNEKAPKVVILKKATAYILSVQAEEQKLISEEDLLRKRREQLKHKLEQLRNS
T1 sequence (P61244 whole entry partner): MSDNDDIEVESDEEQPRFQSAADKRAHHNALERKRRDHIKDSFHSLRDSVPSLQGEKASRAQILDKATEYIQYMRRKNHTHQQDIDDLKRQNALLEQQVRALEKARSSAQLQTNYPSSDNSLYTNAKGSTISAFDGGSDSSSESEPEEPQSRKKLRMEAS
Experimental: (§1) pET151-D-TOPO-cMyc vector was kindly provided by Dr. Edward Prochownik from the
(§2) Department of Pediatrics at UPMC Children’s Hospital of Pittsburgh. Expression and purification
(§3) of Myc353-437 were performed using an established protocol with minor modifications.7 BL21(DE3)
(§4) cells were used to express recombinant Myc353-437 protein. Bacteria were grown at 37 °C to OD600
(§5) of 0.8 followed by 1 mM IPTG induction and 16-18h growth at RT. Cells were harvested via
(§6) centrifugation at 4,000 rpm at 4 °C and the pellet was resuspended in 10 mL of lysis buffer (8 M
(§7) urea, 100 mM NaH2PO4, 10 mM Tris HCl, pH 8) supplemented with protease inhibitor cocktail
(§8) (PierceTM Protease Inhibitor Tablets) and benzonase nuclease. Suspensions were sonicated on
(§9) ice using a Branson Cell Disruptor 200 and centrifuged at 12,000 rpm for 45 min at 4 °C. Clarified
(§10) lysate was applied to a column containing pre-equilibrated HisPur Ni-NTA Superflow Agarose
(§11) (ThermoFisher Scientific) for overnight at 4 °C. The resin beads were washed with 10 mL of
(§12) additional lysis buffer followed by three washes of 10 mL wash buffer (8 M urea, 100 mM
NaH2PO4, 10 mM Tris HCl, 10 mM imidazole). The target protein was eluted with elution buffer (8 […]
Fluorescence Polarization Binding Assay […]
determined using fluorescence polarization-based direct binding assay. […]
from 10 μM into 15 nM of FITC-labeled peptide in assay buffer. KD was determined using the […]

[2] = target: T2, full-length His6-Max (MAX^1-160) (Homo sapiens, UniProt P61244); experiment: Fluorescence polarization direct binding to His6-MAX; conditions: FP direct binding; 15 nM FITC-labeled peptide; His6-MAX from 10 μM; 1X PBS, 1 mM DTT, 5% glycerol, 0.1% pluronic acid, pH 6.7; 25 °C
T2 construct: N.B. (MAX^1-160)
T2 sequence (P61244 whole entry): as the sequence (P61244 whole entry partner) above
Experimental: (§13) Fluorescence Polarization Binding Assay
(§14) The relative affinities of FITC-CHDMax-1 to His6-Myc353-436 and full-length His6-Max were
(§15) determined using fluorescence polarization-based direct binding assay. The polarization
(§16) experiments were performed using a DTX 880 Multimode Detector (Beckman) at 25 °C with
(§17) excitation and emission wavelengths of 485 and 525 nm, respectively. Each polarization
(§18) experiment was performed in a 96-well round bottom plate (Greiner) in assay buffer: 1X PBS, 1
(§19) mM DTT, 5% glycerol, 0.1% pluronic acid, pH 6.7. The binding affinity (KD) values reported for
(§20) each peptide are from experiments performed in triplicate. Raw values were fit to a sigmoidal
(§21) dose-response nonlinear regression model in GraphPad Prism 6.0.
(§22) All binding experiments with FITC-labeled peptides to His6-Myc353-436 or His6-Max were performed
(§23) under the same conditions. Briefly, serial dilutions of His6-Myc353-436 and His6-Max were made
(§24) from 10 μM into 15 nM of FITC-labeled peptide in assay buffer. KD was determined using the
(§25) KD1 = (RT*(1-FSB) + LST*FSB2)/FSB-LST
(§26) RT = Total concentration of His6-Myc353-436 or His6-Max
(§27) LST = Total concentration of FITC-labeled peptide
(§28) FSB = Fraction of bound FITC-labeled peptide

[3] = target: T3, recombinant human MYC^353–437 protein (His6-MYC^353–437) (Homo sapiens, UniProt P01106); experiment: Fluorescence polarization direct binding of fluorescein-labeled CHDs to His6-MYC353-437; conditions: FP direct binding; 15 nM FITC-labeled peptide; His6-MYC serial dilutions from 10 μM; 1X PBS, 1 mM DTT, 5% glycerol, 0.1% pluronic acid, pH 6.7; 25 °C; triplicate; MYC aggregates above 5 μM; read-out: Binding Affinity MYC^353-436, Kd
T3 construct: recombinant human MYC^353–437 protein; made in house; host or cells: E. coli BL21(DE3), pET151-D-TOPO-cMyc vector
T3 sequence (P01106 368-452): as the sequence (P01106 368-452) above
Experimental: as §1, §2, §3, §4, §5, §6, §7, §8, §9, §10, §11, §12
NaH2PO4, 10 mM Tris HCl, 10 mM imidazole). The target protein was eluted with elution buffer (8
M urea, 100 mM NaH2PO4, 10 mM Tris HCl, 250 mM imidazole) and buffer exchanged into 150
mM NaCl, 50 mM Tris HCl, 5% glycerol, pH 6.7. Protein was concentrated by ultra-filtration (3000
MWCO; Amicon Ultra-15 Centrifugal Filter units from EMD Millipore) followed by TEV cleavage
(1:100 w/w of protease to target protein) in 150 mM NaCl, 50 mM Tris HCl, 5% glycerol, pH 6.7
for 24 hrs at 4 °C. The cleaved protein is further purified by reverse-phase HPLC (gradient 10-60
acetonitrile/water with 0.1% TFA over 35 min) to remove TEV protease and un-cleaved protein.
Purified Myc353-437 was lyophilized and stored at -20 °C. Myc353-437 identity was characterized by
as §13, §14, §15, §16, §17, §18, §19, §20, §21, §22, §23, §24, §25, §26, §27, §28

Kd [1]: 460 ± 150 nM | CHD^Max-1 Binding Affinity, Kd (MAX^1-160) [2]: N.B. | Kd [3]: 350 ± 17 nM
Structure (SMILES): CC[C@H](C)[C@H](NC(=O)[C@H](CCCCN)NC(=O)[C@H](CCC(=O)O)NC(=O)[C@H](CCCNC(=N)N)NC(=O)[C@H](CC(C)C)NC(C)=O)C(=O)N[C@@H](C)C(=O)N[C@H](C(=O)N[C@@H](CC(C)C)C(=O)N[C@@H](CCC(N)=O)C(=O)N[C@@H](Cc1c[nH]c2ccccc12)C(=O)N[C@@H](CSCc1ccc(COCc2ccc(CSC[C@H](NC(=O)[C@H](CC(C)C)NC(=O)[C@H](CCC(=O)O)NC(=O)[C@H](CCC(=O)O)NC(=O)[C@@H](NC(=O)[C@H](CCC(=O)O)NC(=O)[C@H](Cc3c[nH]c4ccccc34)NC(=O)[C@H](CCC(N)=O)NC(=O)[C@H](Cc3c[nH]cn3)NC(=O)[C@@H](NC(=O)[C@H](CCC(=O)O)NC(=O)[C@H](CC(N)=O)NC(=O)[C@H](CCCCN)NC(=O)[C@H](CCCNC(=N)N)NC(=O)[C@H](CCCNC(=N)N)NC(=O)[C@H](CC(C)C)NC(C)=O)[C@@H](C)O)[C@@H](C)CC)C(N)=O)cc2)cc1)C(=O)N[C@H](C(=O)N[C@@H](CCC(=O)O)C(=O)N[C@@H](CCC(=O)O)C(=O)N[C@@H](CC(C)C)C(=O)N[C@@H](CCCNC(=N)N)C(=O)N[C@@H](CCCCN)C(N)=O)[C@@H](C)CC)[C@@H](C)O [CHD^Max-1] (I: Ac-LREKIATLQWCIEELRK-NH2 / II: Ac-LRRKNETHQWEIEELC-NH2; linker I:11-II:16 via X1)
